According to ChEMBL document CHEMBL1136382, “Spiro[pyrrolidine-2,2'-adamantanes]: synthesis, anti-influenza virus activity and conformational properties” (Bioorg Med Chem Lett, 2003):

How the values were obtained:
Epithelial cell = experiment: Antiviral activity against influenza B (Hong kong/5/72) in human epithelial cells; format: functional, cell-based
MDCK [1] = experiment: Minimum cytotoxic concentration required to cause a microscopically detectable alteration of MDCK, Madin-Darby canine kidney cell morphology.; format: functional, Canis lupus familiaris
MDCK [2] = experiment: cells; conditions: Canis lupus familiaris

C1CNC2(C1)C1CC3CC(C1)CC2C3 (stereo not given)
EC50 (Epithelial cell): > 1100 µM | MCC50 (MDCK [1]): >610.5 µM | EC50 (MDCK [2]): 1.8 µM

CC1CCC2(C3CC4CC(C3)CC2C4)N1C (stereo not given)
EC50 (Epithelial cell): 149 µM | MCC50 (MDCK [1]): 55.3 µM | EC50 (MDCK [2]): 2.7 µM

CC1CCN(C)C12C1CC3CC(C1)CC2C3 (stereo not given)
EC50 (Epithelial cell): > 746 µM | MCC50 (MDCK [1]): >60 µM | EC50 (MDCK [2]): 12.5 µM

CC1CNC2(C1)C1CC3CC(C1)CC2C3 (stereo not given)
EC50 (Epithelial cell): 1040 µM | MCC50 (MDCK [1]): 313.6 µM | EC50 (MDCK [2]): 3.3 µM

CC1CCC2(N1)C1CC3CC(C1)CC2C3 (stereo not given)
EC50 (Epithelial cell): > 1040 µM | MCC50 (MDCK [1]): >414 µM | EC50 (MDCK [2]): 2.5 µM

CN1CCCC12C1CC3CC(C1)CC2C3 (stereo not given)
EC50 (Epithelial cell): > 1040 µM | MCC50 (MDCK [1]): 357 µM | EC50 (MDCK [2]): 2.9 µM

CC1CN(C)C2(C1)C1CC3CC(C1)CC2C3 (stereo not given)
EC50 (Epithelial cell): > 746 µM | MCC50 (MDCK [1]): >226 µM | EC50 (MDCK [2]): 3.3 µM

CC1CCNC12C1CC3CC(C1)CC2C3 (stereo not given)
EC50 (Epithelial cell): > 1040 µM | MCC50 (MDCK [1]): >280 µM | EC50 (MDCK [2]): 3.7 µM

NC12CC3CC(CC(C3)C1)C2 [AMANTADINE]
EC50 (Epithelial cell): > 1330 µM | MCC50 (MDCK [1]): >1211.8 µM | EC50 (MDCK [2]): 1.1 µM

NC(=O)c1ncn([C@@H]2O[C@H](CO)[C@@H](O)[C@H]2O)n1 [RIBAVIRIN]
EC50 (Epithelial cell): > 1020 µM | MCC50 (MDCK [1]): >276.9 µM | EC50 (MDCK [2]): 3.7 µM
